From US10202371B2, “Oxazolidin-2-one-pyrimidine derivatives and the use thereof as phosphatidylinositol-3-kinase inhibitors” (Novartis AG, priority 2012, dated 2019)
pIC50: −log10 of the molar value.

Tests used:
[1] = In vitro skin penetration and permeation, pig skin in Franz-type diffusion cells; format: in vitro ADME; conditions: for Permeation rate: pig skin, 48 hours exposure
Method: The compound was applied as 0.5% solutions in propylene glycol mixed with either ethanol or oleylalcohol to pig skin mounted in static Franz-type diffusion cells. At the end of a 48 hours exposure time, drug concentrations were measured in the skin (after removal of stratum corneum) and in the receiver. The receiver solution is a mixture of two volume parts of phosphate-buffered saline (PBS) and one volume part of fetal calf serum (FCS).

[2] = biological target: human PI3Kbeta p110 catalytic subunit (Rat-1 cells) (Homo sapiens (Human), UniProt P42338); assay: Cellular assay PI3Kbeta, p-Akt(S473) SureFire in Rat-1_PI3Kbeta cells; format: cell-based; conditions: p-AKT(Ser473), 1 h treatment; read-out: Rat1-PI3Kb/IC50
Chain of human PI3Kbeta p110 catalytic subunit (Rat-1 cells) (P42338 whole entry): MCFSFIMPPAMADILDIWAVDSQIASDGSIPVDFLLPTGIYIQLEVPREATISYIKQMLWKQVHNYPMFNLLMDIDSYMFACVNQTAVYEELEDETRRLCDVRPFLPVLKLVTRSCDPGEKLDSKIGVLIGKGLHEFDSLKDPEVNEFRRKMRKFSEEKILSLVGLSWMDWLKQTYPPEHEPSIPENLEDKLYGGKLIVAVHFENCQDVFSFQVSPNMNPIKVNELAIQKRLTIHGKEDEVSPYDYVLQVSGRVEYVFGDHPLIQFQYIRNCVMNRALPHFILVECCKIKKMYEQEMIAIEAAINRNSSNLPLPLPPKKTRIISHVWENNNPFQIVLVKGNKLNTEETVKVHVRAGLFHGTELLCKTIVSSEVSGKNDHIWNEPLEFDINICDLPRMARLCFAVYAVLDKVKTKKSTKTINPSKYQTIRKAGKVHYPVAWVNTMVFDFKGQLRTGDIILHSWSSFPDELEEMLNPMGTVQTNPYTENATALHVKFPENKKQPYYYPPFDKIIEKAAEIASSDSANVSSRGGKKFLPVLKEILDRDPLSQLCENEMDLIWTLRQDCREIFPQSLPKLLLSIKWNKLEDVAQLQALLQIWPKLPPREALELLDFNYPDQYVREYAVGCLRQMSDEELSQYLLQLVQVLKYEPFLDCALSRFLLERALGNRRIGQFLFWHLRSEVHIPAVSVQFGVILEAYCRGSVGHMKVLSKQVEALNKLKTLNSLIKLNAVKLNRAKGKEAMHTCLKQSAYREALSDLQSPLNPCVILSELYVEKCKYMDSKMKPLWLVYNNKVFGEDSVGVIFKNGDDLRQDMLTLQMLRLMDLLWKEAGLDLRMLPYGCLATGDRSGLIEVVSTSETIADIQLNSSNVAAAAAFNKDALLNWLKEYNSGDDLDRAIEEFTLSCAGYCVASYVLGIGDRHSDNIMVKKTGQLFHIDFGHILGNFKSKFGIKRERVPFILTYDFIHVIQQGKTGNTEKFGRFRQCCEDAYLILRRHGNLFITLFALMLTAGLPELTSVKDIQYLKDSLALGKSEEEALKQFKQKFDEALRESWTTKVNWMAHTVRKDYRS
Chain of human PI3Kbeta p110 catalytic subunit (Rat-1 cells) (Q63787 whole entry partner): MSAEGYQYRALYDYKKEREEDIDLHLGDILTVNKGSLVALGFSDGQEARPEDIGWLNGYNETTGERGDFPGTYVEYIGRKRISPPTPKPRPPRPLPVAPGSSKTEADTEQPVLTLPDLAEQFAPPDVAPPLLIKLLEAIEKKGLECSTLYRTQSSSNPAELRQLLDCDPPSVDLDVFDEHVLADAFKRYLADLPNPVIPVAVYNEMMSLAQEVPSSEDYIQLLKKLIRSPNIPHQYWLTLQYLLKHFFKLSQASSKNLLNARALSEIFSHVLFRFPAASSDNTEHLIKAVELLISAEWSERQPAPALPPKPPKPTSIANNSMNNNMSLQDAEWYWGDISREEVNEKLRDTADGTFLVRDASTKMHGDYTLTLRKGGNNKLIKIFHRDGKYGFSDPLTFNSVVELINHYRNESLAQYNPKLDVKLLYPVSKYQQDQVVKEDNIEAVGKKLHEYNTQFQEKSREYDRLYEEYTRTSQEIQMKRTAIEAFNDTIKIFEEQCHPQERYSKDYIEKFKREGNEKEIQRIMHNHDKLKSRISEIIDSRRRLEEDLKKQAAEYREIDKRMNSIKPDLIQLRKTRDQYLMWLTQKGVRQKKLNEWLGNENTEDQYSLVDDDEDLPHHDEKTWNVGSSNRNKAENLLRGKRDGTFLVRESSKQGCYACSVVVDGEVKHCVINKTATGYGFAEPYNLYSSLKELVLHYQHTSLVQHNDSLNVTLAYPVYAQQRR
Description: AlphaScreen (Amplified Luminescent Proximity Homogeneous Assay, ALPHA, Perkin Elmer) is a non-radioactive bead-based proximity assay technology to study biomolecular interactions in a homogenous microtiter plate format. The brand name SureFire denotes AlphaScreen assays that are adapted to quantify the phosphorylation of endogenous cellular proteins in cell lysates, by using matched antibody pairs, which consist of an anti-phospho-kinase and an anti-kinase antibody. The assay allows characterization of kinase signaling in cells as well as measurement of kinase inhibitor effects. The AlphaScreen technology provides several advantages over standard assay techniques such as ELISA, as it avoids time-consuming washing procedures and reduces plate handling. Furthermore, it is miniaturizable at least to a 384-well format and provides sensitivity down to the femtomolar range, dependent on the affinity of the antibodies included in the individual AlphaScreen SureFire assay kit. High sensitivity is reached by an intrinsic amplification mechanism, which involves production of singlet oxygen molecules. SureFire assay kits are commercially available for specific targets and include pairs of validated antibodies (PerkinElmer). This report describes common procedures applied for AlphaScreen SureFire assays and respective semi-automated steps for routine kinase inhibitor profiling in cell-based assays.
The Rat-1 cell lines stably overexpressing activated PI3K class I isoforms Rat-1 pBABEpuro Myr-HA-hp110 delta (Rat-1_PI3Kdelta) and Rat-1 pBABEpuro Myr-HA-hp110alpha (Rat-1_PI3Kalpha) and Rat-1 pBABEpuro Myr-HA-hp110 beta (Rat-1_PI3beta) were prepared as described (Maira S M, Stauffer F, Brueggen J, Furet P, Schnell C, Fritsch C, Brachmann S, Chène P, de Pover A, Schoemaker K, Fabbro D, Gabriel D, Simonen M, Murphy L, Finan P, Sellers W, Garcia-Echeverria C (2008), Mol Cancer Ther. 7:1851-63 and Maira S M, Pecchi S, Brueggen J, Huh K, Schnell C, Fritsch C, Nagel T, Wiesmann M, Brachmann S, Dorsch M, Chène P, Schoemaker K, De Pover A, Menezes D, Fabbro D, Sellers W, Garcia-Echeverria C, Voliva CF (2011), Mol. Cancer Ther., accepted). All cell lines were cultivated in complete growth medium (DMEM high glucose, 10% (v/v) fetal bovine serum, 1% (v/v) MEM NEAA, 10 mM HEPES, 2 mM L-glutamine, puromycin (10 μg/mL for Rat-1_PI3Kdelta and Rat-1_PI3Kalpha, 4 ug/mL for Rat-1_PI3beta), 1% (v/v) Pen/Strep) to 90% confluency at 37° C./5% CO2/90% humidity in a humidified CO2 incubator and were split twice a week. […]

human PI3Kα = human PI3Kα (Homo sapiens (Human), UniProt P42336); assay: Biochemical assay PI3Kalpha (KinaseGlo luminescence); conditions: 1 μM ATP
Chain of human PI3Kα (P42336 21-1068): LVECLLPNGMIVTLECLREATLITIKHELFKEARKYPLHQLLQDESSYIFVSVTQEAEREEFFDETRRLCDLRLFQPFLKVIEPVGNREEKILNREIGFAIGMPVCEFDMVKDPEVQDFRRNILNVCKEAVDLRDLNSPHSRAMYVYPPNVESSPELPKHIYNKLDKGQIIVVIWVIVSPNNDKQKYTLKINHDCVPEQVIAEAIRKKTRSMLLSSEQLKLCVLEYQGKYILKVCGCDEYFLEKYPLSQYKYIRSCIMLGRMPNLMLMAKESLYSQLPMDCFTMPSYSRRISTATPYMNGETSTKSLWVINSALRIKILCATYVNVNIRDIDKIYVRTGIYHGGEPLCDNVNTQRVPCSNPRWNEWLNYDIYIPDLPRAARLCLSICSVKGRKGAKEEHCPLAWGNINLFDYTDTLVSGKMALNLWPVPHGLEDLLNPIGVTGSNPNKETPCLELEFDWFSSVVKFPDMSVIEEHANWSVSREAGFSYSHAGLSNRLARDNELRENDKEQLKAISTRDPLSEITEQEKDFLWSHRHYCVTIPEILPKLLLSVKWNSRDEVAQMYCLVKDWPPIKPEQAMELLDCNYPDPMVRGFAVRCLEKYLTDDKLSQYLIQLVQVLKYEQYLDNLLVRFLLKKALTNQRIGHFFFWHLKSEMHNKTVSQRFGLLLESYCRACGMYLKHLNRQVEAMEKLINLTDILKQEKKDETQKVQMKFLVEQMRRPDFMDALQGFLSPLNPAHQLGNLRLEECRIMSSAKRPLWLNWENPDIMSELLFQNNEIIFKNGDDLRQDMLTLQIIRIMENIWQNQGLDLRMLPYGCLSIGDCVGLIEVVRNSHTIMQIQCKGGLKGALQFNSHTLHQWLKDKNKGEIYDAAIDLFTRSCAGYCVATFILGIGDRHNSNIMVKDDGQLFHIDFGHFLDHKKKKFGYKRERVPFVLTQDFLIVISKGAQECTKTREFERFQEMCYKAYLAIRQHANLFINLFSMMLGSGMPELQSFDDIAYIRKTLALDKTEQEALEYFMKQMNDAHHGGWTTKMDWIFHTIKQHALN
Description: Cancer Ther. accepted). […] (L-alpha-phosphatidylinositol (PI), Liver, Bovine) were obtained from Avanti Polar Lipid (Cat. […] (Avanti, Cat. No. 840046X) or L-α-phosphatidylinositol (PI) was obtained from Avanti Polar Lipid (Cat. […] Luminescence is a well established readout to determine ATP concentrations and can thus be used to follow the activity of many kinases regardless of their substrate. The Kinase Glo Luminescent Kinase Assay (Promega, Madison/WI, USA) is a homogeneous HTS method of measuring kinase activity by quantifying the amount of ATP remaining in solution following a kinase reaction. 50 nL of compound dilutions were dispensed onto black 384-well low volume Non Binding Styrene (NBS) plates (Costar Cat. No. […] L-α-phosphatidylinositol (PI), provided as 10 mg/ml solution in methanol, was transferred into a glass tube and dried under nitrogen beam. […] NVP-BGT226 was used as a reference compound and included in all assay plates in the form of 16 dilution points in duplicate. […] All fits were performed with the program XLfit4 (ID Business Solutions, Guildford, UK).

| Structure (SMILES) | pIC50 [2] | also measured |
| --- | --- | --- |
| C[C@H]1[C@H](c2nccs2)OC(=O)N1c1cc(-c2cnc(N)nc2C(F)(F)F)nc(N2CCOCC2)n1 [Example 1, (4S,5R)-3-(2′-Amino-2-morpholin-4-yl-4′-trifluoromethyl-[4,5′]bipyrimidinyl-6-yl)-4-methyl-5-thiazol-2-yl-oxazolidin-2-one] |  | permeation rate through pig skin (in words) ([1]; pig skin in vitro): low; Permeation rate ([1]; 0.5% in PG + ethanol (7 + 3)): 1.0 ± 0.3 ng/cm^2/hr; Permeation rate ([1]; 0.5% in PG/OA (9 + 1)): 301.1 ± 129.5 ng/cm^2/hr |
| C[C@H]1[C@@H](c2nccs2)OC(=O)N1c1cc(-c2cnc(N)nc2C(F)(F)F)nc(N2CCOCC2)n1 [Example 11] | 7.59 |  |
| CCC1C(c2cccnc2)OC(=O)N1c1cc(-c2cnc(N)nc2C(F)(F)F)nc(N2CCOCC2)n1 (stereo not drawn) [Example 8] | 7.59 |  |
| CC[C@H]1[C@H](c2ccc(OC)cc2)OC(=O)N1c1cc(-c2cnc(N)nc2C(F)(F)F)nc(N2CCOCC2)n1 (relative stereo) [Example 2, (4S*,5S*)-3-(2′-amino-2-morpholino-4′-(trifluoromethyl)-[4,5′-bipyrimidin]-6-yl)-4-ethyl-5-(4-methoxyphenyl)oxazolidin-2-one] | 6.12 |  |
| COc1ccc([C@@H]2OC(=O)N(c3cc(-c4cnc(N)nc4C(F)(F)F)nc(N4CCOCC4)n3)[C@H]2CO)cc1 [Example 3, (4S,5S)-3-(2′-Amino-2-morpholino-4′-(trifluoromethyl)-[4,5′-bipyrimidin]-6-yl)-4-(hydroxymethyl)-5-(4-methoxyphenyl)oxazolidin-2-one] | 7.48 |  |
| Nc1ncc(-c2cc(N3C(=O)O[C@@H](c4ccccc4)[C@@H]3CO)nc(N3CCOCC3)n2)c(C(F)(F)F)n1 [Example 10] | 7.64 | PI3Ka/IC50 (human PI3Kα): 0.009 umol I-1 |
